In the NIST ThermoML archive (doi:10.1021/je0602925) one finds activity coefficient data, which are given here for 9 molecules.

± gives the expanded uncertainty stated by the source.

The series in a line: activity coefficient (dimensionless); of the first substance listed, at infinite dilution; xn = mol fraction of the nth substance listed. To be noted: Liquid, Chromatography, x1 = 0.

Consider `C=CCCCCCC` [oct-1-ene] + CCCCCCCCCCCCCC[P+](CCCCCC)(CCCCCC)CCCCCC.F[B-](F)(F)F, for which the activity coefficient by setting is: (308.15 K) 0.769 ± 0.05; (318.15 K) 0.748 ± 0.049; (328.15 K) 0.734 ± 0.049.

As to `C=CCCCCCC` [oct-1-ene] + CCCCCCCCCCCCCC[P+](CCCCCC)(CCCCCC)CCCCCC.O=S(=O)([N-]S(=O)(=O)C(F)(F)F)C(F)(F)F, the activity coefficient runs as follows: (308.15 K) 0.617 ± 0.043; (318.15 K) 0.605 ± 0.042; (328.15 K) 0.598 ± 0.042.

Turning to `C=CCCCCCC` [oct-1-ene] + CCCCCCCCCCCCCC[P+](CCCCCC)(CCCCCC)CCCCCC.[Cl-], the activity coefficient amounted to 0.567 ± 0.041 (308.15 K), 0.557 ± 0.04 (318.15 K) and 0.552 ± 0.04 (328.15 K).

`CCCCCCCC` [octane] + CCCCCCCCCCCCCC[P+](CCCCCC)(CCCCCC)CCCCCC.F[B-](F)(F)F: the activity coefficient (308.15 K) is 1.15 ± 0.073, the activity coefficient (318.15 K) came to 1.11 ± 0.071 and the activity coefficient (328.15 K) came to 1.09 ± 0.069.

As to `CCCCCCCC` [octane] + CCCCCCCCCCCCCC[P+](CCCCCC)(CCCCCC)CCCCCC.O=S(=O)([N-]S(=O)(=O)C(F)(F)F)C(F)(F)F, the activity coefficient (308.15 K) was determined as 0.843 ± 0.054, the activity coefficient (318.15 K) is 0.825 ± 0.053 and the activity coefficient (328.15 K) was 0.814 ± 0.053.

Take `CCCCCCCC` [octane] + CCCCCCCCCCCCCC[P+](CCCCCC)(CCCCCC)CCCCCC.[Cl-]: the activity coefficient was found to be 0.847 ± 0.054 (308.15 K), 0.831 ± 0.054 (318.15 K) and 0.821 ± 0.053 (328.15 K).

In the case of `CCCCC` [pentane] + CCCCCCCCCCCCCC[P+](CCCCCC)(CCCCCC)CCCCCC.F[B-](F)(F)F, the activity coefficient is, setting by setting: (308.15 K) 0.722 ± 0.048; (318.15 K) 0.706 ± 0.047; (328.15 K) 0.695 ± 0.047.

`CCCCC` [pentane] + CCCCCCCCCCCCCC[P+](CCCCCC)(CCCCCC)CCCCCC.O=S(=O)([N-]S(=O)(=O)C(F)(F)F)C(F)(F)F: the activity coefficient (308.15 K) turned out to be 0.611 ± 0.043, the activity coefficient (318.15 K) came to 0.602 ± 0.042 and the activity coefficient (328.15 K) worked out at 0.597 ± 0.042.

In the case of `CCCCC` [pentane] + CCCCCCCCCCCCCC[P+](CCCCCC)(CCCCCC)CCCCCC.[Cl-], the activity coefficient (308.15 K) is 0.607 ± 0.042, the activity coefficient (318.15 K) came to 0.599 ± 0.042 and the activity coefficient (328.15 K) is 0.594 ± 0.042.
